{"source": "paper PMC6822569", "about": "(Journal of medicinal chemistry, 2019)", "key": {"[1]": {"tested_on": "P. yoelii", "experiment": "In vivo blood stage efficacy, modified 4-day test in murine P. yoelii model", "details": "after 80 mg/kg × 4 days oral dosing"}, "[2]": {"tested_on": "P. falciparum Tm90-C2B", "experiment": "In vitro blood stage antimalarial activity, MSF assay, strain Tm90-C2B", "format": "cell-based", "details": "read-out: blood stage IC50 vs P. falciparum Tm90-C2B; Tm90-C2B: Atovaquone resistant clinical isolate"}, "[3]": {"experiment": "In vitro metabolic stability, human liver microsomes", "details": "1 μM"}, "[4]": {"experiment": "In vivo pharmacokinetic study, single oral dose in mice, plasma and liver"}, "[5]": {"tested_on": "P. falciparum Dd2", "experiment": "microbe, parasite or virus in culture", "format": "cell-based"}, "[6]": {"tested_on": "HepG2", "experiment": "HepG2 cytotoxicity assay", "format": "cell-based, human"}, "[7]": {"target": "hERG (human-ether-a-go-go-related gene) potassium channel (Homo sapiens, UniProt Q12809)", "sequence (Q12809 whole entry)": "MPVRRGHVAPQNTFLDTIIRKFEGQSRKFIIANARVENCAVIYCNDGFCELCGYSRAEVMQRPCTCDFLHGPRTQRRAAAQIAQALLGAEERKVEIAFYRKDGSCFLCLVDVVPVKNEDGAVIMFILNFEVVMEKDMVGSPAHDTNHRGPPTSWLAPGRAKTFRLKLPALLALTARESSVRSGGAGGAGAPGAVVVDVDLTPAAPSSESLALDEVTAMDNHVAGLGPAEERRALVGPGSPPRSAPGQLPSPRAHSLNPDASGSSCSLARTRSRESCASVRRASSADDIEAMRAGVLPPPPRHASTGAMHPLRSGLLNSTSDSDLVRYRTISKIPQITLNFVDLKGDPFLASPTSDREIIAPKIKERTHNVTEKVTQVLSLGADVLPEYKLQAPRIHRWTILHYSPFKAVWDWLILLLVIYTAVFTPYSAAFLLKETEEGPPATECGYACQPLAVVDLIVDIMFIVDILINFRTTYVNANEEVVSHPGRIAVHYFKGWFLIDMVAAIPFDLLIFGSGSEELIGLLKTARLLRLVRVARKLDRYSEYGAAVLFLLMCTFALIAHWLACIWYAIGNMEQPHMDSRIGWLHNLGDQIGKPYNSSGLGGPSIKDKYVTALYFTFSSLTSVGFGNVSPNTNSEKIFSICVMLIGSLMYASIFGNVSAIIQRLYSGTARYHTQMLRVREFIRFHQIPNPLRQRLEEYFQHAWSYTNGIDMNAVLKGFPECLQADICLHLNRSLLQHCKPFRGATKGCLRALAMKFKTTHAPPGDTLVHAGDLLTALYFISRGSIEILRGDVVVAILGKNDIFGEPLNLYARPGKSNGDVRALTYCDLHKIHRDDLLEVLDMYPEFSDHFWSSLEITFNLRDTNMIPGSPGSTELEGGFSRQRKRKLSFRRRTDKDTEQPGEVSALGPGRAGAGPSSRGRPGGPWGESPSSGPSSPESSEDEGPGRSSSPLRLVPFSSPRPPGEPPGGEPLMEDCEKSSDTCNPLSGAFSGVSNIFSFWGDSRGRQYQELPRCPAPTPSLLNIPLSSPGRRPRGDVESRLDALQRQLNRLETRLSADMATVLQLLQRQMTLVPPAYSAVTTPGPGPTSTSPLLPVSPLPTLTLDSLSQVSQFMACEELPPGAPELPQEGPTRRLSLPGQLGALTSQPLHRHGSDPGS", "experiment": "hERG potassium channel current, automatic parallel patch clamp", "format": "cell-based"}, "[8]": {"tested_on": "P. falciparum Dd2", "experiment": "72 h SYBR Green I drug susceptibility, parental Dd2", "format": "cell-based", "details": "Plasmodium falciparum, DD2, 72 h, read-out: Dd2 IC50"}, "[9]": {"details": "liver, single oral dose of 80 mg/kg, mice"}, "[10]": {"details": "plasma, single oral dose of 80 mg/kg, mice"}, "[11]": {"details": "read-out: blood stage IC50 vs P. falciparum Dd2, Dd2: MDR strain with Old World genetic background"}, "[12]": {"details": "Plasmodium falciparum, DD2, read-out: blood stage IC50 vs P. falciparum Dd2"}, "[13]": {"details": "male, ICR, mouse, liver, po, 80 mg/kg"}}, "note": "Like-named read-outs stand apart in the source and are kept apart here."}
{"molecule": "1,2-Dichloro-6-(3-(dibutylamino)propoxy)acridin-9(10H)-one [compound 75]", "values": [{"measurement": "cure in murine P. yoelii model", "setting": "[1]", "value": "curative"}, {"measurement": "IC50", "setting": "[2]", "value": 228, "unit": "nM"}, {"measurement": "metabolic stability vs microsomes t1/2, human", "setting": "[3]", "value": 0.2, "unit": "h"}, {"measurement": "AUCinf", "setting": "[4]; [9]", "value": 169389, "unit": "ng·h/mL"}, {"measurement": "AUClast", "setting": "[4]; [9]", "value": 167981, "unit": "ng·h/mL"}, {"measurement": "CL/F", "setting": "[4]; [9]", "value": 8.95, "unit": "mL/min/kg"}, {"measurement": "Cmax", "setting": "[4]; [9]", "value": 21269, "unit": "ng/mL"}, {"measurement": "MRT b", "setting": "[4]; [9]", "value": 10.08, "unit": "h"}, {"measurement": "Tmax", "setting": "[4]; [9]", "value": 2.75, "unit": "h"}, {"measurement": "Vz/F", "setting": "[4]; [9]", "value": 3.605, "unit": "L/kg"}, {"measurement": "t1/2", "setting": "[4]; [9]", "value": 4.63, "unit": "h"}, {"measurement": "AUCinf", "setting": "[4]; [10]", "value": 3239, "unit": "ng·h/mL"}, {"measurement": "AUClast", "setting": "[4]; [10]", "value": 3049, "unit": "ng·h/mL"}, {"measurement": "CL/F", "setting": "[4]; [10]", "value": 431.32, "unit": "mL/min/kg"}, {"measurement": "Cmax", "setting": "[4]; [10]", "value": 226, "unit": "ng/mL"}, {"measurement": "MRT b", "setting": "[4]; [10]", "value": 6.96, "unit": "h"}, {"measurement": "Tmax", "setting": "[4]; [10]", "value": 2.75, "unit": "h"}, {"measurement": "Vz/F", "setting": "[4]; [10]", "value": 223.865, "unit": "L/kg"}, {"measurement": "t1/2", "setting": "[4]; [10]", "value": 6.00, "unit": "h"}, {"measurement": "IC50", "setting": "[5]; [11]", "value": 0.041, "unit": "nM"}, {"measurement": "IC50", "setting": "[6]; read-out: cytotoxicity IC50 vs HepG2, human hepatocarcinoma HepG2 cells", "value": 54500, "unit": "nM"}, {"measurement": "hERG activity (% inhibition at 10 uM)", "setting": "[7]", "value": 57, "unit": "%"}]}
{"molecule": "1,4-Dichloro-6-(3-(diethylamino)propoxy)acridin-9(10H)-one [compound 100]", "values": [{"measurement": "IC50", "setting": "[2]", "value": "> 2500", "unit": "nM"}, {"measurement": "IC50", "setting": "[5]; [11]", "value": 1300, "unit": "nM"}, {"measurement": "IC50", "setting": "[6]", "value": 77000, "unit": "nM"}, {"measurement": "selectivity index (SI) (D6)", "setting": "[6]; SI = IC50 (cytotoxicity)/IC50 (D6)", "value": 152}]}
{"molecule": "COc1cc(NC(C)CCCN)c2ncccc2c1", "note": "(stereo not shown) [Primaquine, reference compound]", "values": [{"measurement": "Vd/F", "setting": "[4]; male, ICR, mouse, in vivo, po, 80 mg/kg", "value": 4.42, "unit": "L/kg"}]}
{"molecule": "CCN(CC)CCOc1ccc2c(=O)c3ccc(Cl)cc3[nH]c2c1", "note": "[compound 7, 3-chloro-6-(2-(diethylamino)ethoxy)acridin-9(10H)-one]", "values": [{"measurement": "IC50", "setting": "[5]; [12]", "value": 41, "unit": "nM"}]}
{"molecule": "CCN(CC)CCOc1ccc2c(=O)c3c(F)cc(F)cc3[nH]c2c1", "note": "[compound 46, 6-(2-(Diethylamino)ethoxy)-1,3-difluoroacridin-9(10H)-one]", "values": [{"measurement": "IC50", "setting": "[5]; [12]", "value": 16, "unit": "nM"}]}
{"molecule": "CCCN(CCC)CCOc1ccc2c(=O)c3c(F)cc(F)cc3[nH]c2c1", "note": "[compound 48, 6-(2-(Dipropylamino)ethoxy)-1,3-difluoroacridin-9(10H)-one]", "values": [{"measurement": "cure in murine P. yoelii model", "setting": "[1]", "value": "curative"}, {"measurement": "CL/F", "setting": "[4]; [13]", "value": 15.5, "unit": "mL/min/kg"}, {"measurement": "Vd/F", "setting": "[4]; [13]", "value": 14, "unit": "L/kg"}, {"measurement": "CL/F", "setting": "[4]; [10]", "value": 407.77, "unit": "mL/min/kg"}]}
{"molecule": "CCCN(CCC)CCCOc1ccc2c(=O)c3c(F)cc(F)cc3[nH]c2c1", "note": "[compound 52, 6-(3-(Dipropylamino)propoxy)-1,3-difluoroacridin-9(10H)-one]", "values": [{"measurement": "CL/F", "setting": "[4]; [13]", "value": 5.8, "unit": "mL/min/kg"}, {"measurement": "Vd/F", "setting": "[4]; [13]", "value": 3.48, "unit": "L/kg"}]}
{"molecule": "O=c1c2ccc(OCCCCl)cc2[nH]c2ccc(Cl)c(Cl)c12", "note": "[compound 71, 1,2-Dichloro-6-(3-chloropropoxy)acridin-9(10H)-one]", "values": [{"measurement": "IC50", "setting": "[5]; [12]", "value": 17, "unit": "nM"}]}
{"molecule": "CCN(CC)CCOc1ccc2c(=O)c3c(Cl)c(Cl)ccc3[nH]c2c1", "note": "[compound 73, 1,2-Dichloro-6-(2-(diethylamino)ethoxy)acridin-9(10H)-one]", "values": [{"measurement": "IC50", "setting": "[8]", "value": "40 ± 5.5", "unit": "nM"}, {"measurement": "IC50", "setting": "[5]; [12]", "value": 12, "unit": "nM"}]}
{"molecule": "CCCN(CCC)CCOc1ccc2c(=O)c3c(Cl)c(Cl)ccc3[nH]c2c1", "note": "[compound 74, 1,2-Dichloro-6-(2-(dipropylamino)ethoxy)acridin-9(10H)-one]", "values": [{"measurement": "cure in murine P. yoelii model", "setting": "[1]", "value": "curative"}, {"measurement": "CL/F", "setting": "[4]; [13]", "value": 2.45, "unit": "mL/min/kg"}, {"measurement": "Vd/F", "setting": "[4]; [13]", "value": 0.392, "unit": "L/kg"}, {"measurement": "IC50", "setting": "[5]; [12]", "value": 0.05, "unit": "nM"}]}
{"molecule": "CN1CCCC1CCOc1ccc2c(=O)c3c(Cl)c(Cl)ccc3[nH]c2c1", "note": "(stereo not shown) [compound 76, 1,2-Dichloro-6-(2-(1-methylpyrrolidin-2-yl)ethoxy)acridin-9(10H)-one]", "values": [{"measurement": "IC50", "setting": "[5]; [12]", "value": 172, "unit": "nM"}]}
{"molecule": "CC(C)(C)NCCOc1ccc2c(=O)c3c(Cl)c(Cl)ccc3[nH]c2c1", "note": "[compound 78, 6-(2-(tert-Butylamino)ethoxy)-1,2-dichloroacridin-9(10H)-one]", "values": [{"measurement": "IC50", "setting": "[5]; [12]", "value": 679, "unit": "nM"}]}
{"molecule": "O=c1c2ccc(OCCNC34CC5CC(CC(C5)C3)C4)cc2[nH]c2ccc(Cl)c(Cl)c12", "note": "[compound 81, 6-(2-((Adamantan-1-yl)amino)ethoxy)-1,2-dichloroacridin-9(10H)-one]", "values": [{"measurement": "IC50", "setting": "[5]; [12]", "value": 77, "unit": "nM"}]}
{"molecule": "CCN(CC)CCOc1ccc2[nH]c3cc(Cl)ccc3c(=O)c2c1", "note": "[compound 128, 6-chloro-2-(2-(diethylamino)ethoxy)acridin-9(10H)-one]", "values": [{"measurement": "IC50", "setting": "[5]; [12]", "value": 132, "unit": "nM"}]}
